In ChEMBL document CHEMBL5584307, “Discovery of a Potent and Orally Bioavailable Xanthine Oxidase/Urate Transporter 1 Dual Inhibitor as a Potential Treatment for Hyperuricemia and Gout” (J Med Chem, 2024):
pIC50: −log10 of the molar value.

Columns and labels:
[1] = target: T1, Solute carrier family 22 member 12 (Homo sapiens, UniProt Q96S37); test: Inhibition of URAT1 (unknown origin) by absorbance based assay
T1 sequence (Q96S37 whole entry): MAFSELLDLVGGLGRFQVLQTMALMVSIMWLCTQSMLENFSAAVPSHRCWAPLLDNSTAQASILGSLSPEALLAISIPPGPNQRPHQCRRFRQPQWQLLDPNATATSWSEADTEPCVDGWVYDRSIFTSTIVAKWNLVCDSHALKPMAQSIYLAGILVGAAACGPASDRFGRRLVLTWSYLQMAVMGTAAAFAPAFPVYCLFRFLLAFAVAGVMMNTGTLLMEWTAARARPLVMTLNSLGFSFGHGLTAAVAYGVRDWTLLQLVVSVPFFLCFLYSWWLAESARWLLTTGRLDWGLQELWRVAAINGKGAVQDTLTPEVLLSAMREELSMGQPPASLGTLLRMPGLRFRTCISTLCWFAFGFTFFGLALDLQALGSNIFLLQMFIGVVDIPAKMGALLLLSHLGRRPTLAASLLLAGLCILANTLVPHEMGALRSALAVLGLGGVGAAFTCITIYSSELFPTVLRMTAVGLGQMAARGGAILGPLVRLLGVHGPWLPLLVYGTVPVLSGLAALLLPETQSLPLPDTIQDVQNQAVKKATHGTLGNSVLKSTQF

[2] = Toxicity in cynomolgous monkey assessed as decrease in body weight at 90 to 200 mg/kg/day for 28 days consecutively; type: organism-based, Macaca fascicularis; conditions: cynomolgus monkey, in vivo, 672 h; dose 90-200 mg/kg/day, time 28 day
[3] = Tmax in Tufted capuchin monkey at 100 mg/kg, po measured for 24 hrs by LC-MS/MS analysis; type: ADME, organism-based; conditions: sapajus apella, in vivo
[4] = AUC (last) in Tufted capuchin monkey at 30 mg/kg, po measured for 24 hrs by LC-MS/MS analysis; type: ADME, organism-based; conditions: sapajus apella, in vivo
[5] = Clearance in Beagle dog at 1 mg/kg, iv measured upto 24 hrs by LC-MS/MS analysis; type: ADME, organism-based, Canis lupus familiaris; conditions: in vivo
[6] = Volume of distribution at steady state in Beagle dog at 5 mg/kg, po or 1 mg/kg, iv measured upto 24 hrs by LC-MS/MS analysis; type: ADME, organism-based, Canis lupus familiaris; conditions: in vivo
[7] = AUC (0 to t) in female cynomolgous monkey at 30 mg/kg/day for 28 days; type: ADME, organism-based, Macaca fascicularis; conditions: cynomolgus monkey, in vivo, time 28 day
[8] = Toxicity in cynomolgous monkey assessed as increase in salivation at 90 to 200 mg/kg/day for 28 days consecutively; type: organism-based, Macaca fascicularis; conditions: cynomolgus monkey, in vivo, 672 h; dose 90-200 mg/kg/day, time 28 day
[9] = Toxicity in cynomolgous monkey assessed as decrease in food consumption at 90 to 200 mg/kg/day for 28 days consecutively; type: organism-based, Macaca fascicularis; conditions: cynomolgus monkey, in vivo, 672 h; dose 90-200 mg/kg/day, time 28 day
[10] = Toxicity in cynomolgous monkey administered daily for 28 days; set-up: species or system Macaca fascicularis; conditions: cynomolgus monkey, in vivo; time 28 day
[11] = Ratio of drug concentration in Sprague-Dawley rat liver to plasma at 3 mg/kg, po measured for 24 hrs by LC-MS/MS analysis; type: ADME, organism-based; conditions: liver and plasma
[12] = AUC (last) in overnight-fasted Sprague-Dawley rat at 1 mg/kg, iv measured upto 24 hrs by LC-MS/MS analysis; type: ADME, organism-based; conditions: in vivo
Cytochrome P450 2C9 = Cytochrome P450 2C9 (Homo sapiens, UniProt P11712); test: Inhibition of CYP2C9 in human liver microsomes in presence of NADPH by LC-MS/MS analysis; type: ADME, Microsome
[13] = Toxicity in rat assessed as diffuse hepatocytes hypertrophy at 120 mg/kg/day for 28 days by H and E staining based analysis; type: organism-based; conditions: in vivo, 672 h, time 28 day
[14] = Toxicity in cynomolgous monkey assessed as distended abdomen at 200 mg/kg/day for 28 days consecutively; type: organism-based, Macaca fascicularis; conditions: cynomolgus monkey, in vivo, 672 h, time 28 day
[15] = Toxicity in rat administered daily for 28 days; conditions: in vivo, time 28 day
[16] = Cmax in Beagle dog at 5 mg/kg, po measured upto 24 hrs by LC-MS/MS analysis; type: ADME, organism-based, Canis lupus familiaris; conditions: in vivo
[17] = Toxicity in rat assessed as single-cellular necrosis of mucosal epithelium in colon at 120 mg/kg/day for 28 days by H and E staining based analysis; type: organism-based; conditions: in vivo, 672 h, time 28 day
[18] = Half life in Tufted capuchin monkey at 10 mg/kg, po measured for 24 hrs by LC-MS/MS analysis; type: ADME, organism-based; conditions: sapajus apella, in vivo
[19] = Toxicity in cynomolgous monkey assessed as development-limiting effect; set-up: species or system Macaca fascicularis; conditions: cynomolgus monkey, in vivo
[20] = AUC (last) in Tufted capuchin monkey at 100 mg/kg, po measured for 24 hrs by LC-MS/MS analysis; type: ADME, organism-based; conditions: sapajus apella, in vivo
[21] = Oral bioavailability in Beagle dog at 5 mg/kg measured upto 24 hrs by LC-MS/MS analysis; type: ADME, organism-based, Canis lupus familiaris; conditions: in vivo
Cytochrome P450 3A4 = Cytochrome P450 3A4 (Homo sapiens, UniProt P08684); test: Inhibition of CYP3A4 in human liver microsomes in presence of NADPH by LC-MS/MS analysis; type: ADME, Microsome
[22] = Volume of distribution at steady state in Cynomolgous monkey at 5 mg/kg, po or 1 mg/kg, iv measured upto 24 hrs by LC-MS/MS analysis; type: ADME, organism-based, Macaca fascicularis; conditions: cynomolgus monkey, in vivo
[23] = Toxicity in rat assessed as increase in ALP level at 120 mg/kg/day for 28 days; type: organism-based; conditions: in vivo, 672 h, time 28 day
[24] = Half life in overnight-fasted Sprague-Dawley rat at 5 mg/kg, po measured upto 24 hrs by LC-MS/MS analysis; type: ADME, organism-based; conditions: in vivo
[25] = AUC (last) in Beagle dog at 1 mg/kg, iv measured upto 24 hrs by LC-MS/MS analysis; type: ADME, organism-based, Canis lupus familiaris; conditions: in vivo
[26] = AUC (last) in overnight-fasted Sprague-Dawley rat at 5 mg/kg, po measured upto 24 hrs by LC-MS/MS analysis; type: ADME, organism-based; conditions: in vivo

Cytochrome P450 3A4, sequence (P08684 whole entry): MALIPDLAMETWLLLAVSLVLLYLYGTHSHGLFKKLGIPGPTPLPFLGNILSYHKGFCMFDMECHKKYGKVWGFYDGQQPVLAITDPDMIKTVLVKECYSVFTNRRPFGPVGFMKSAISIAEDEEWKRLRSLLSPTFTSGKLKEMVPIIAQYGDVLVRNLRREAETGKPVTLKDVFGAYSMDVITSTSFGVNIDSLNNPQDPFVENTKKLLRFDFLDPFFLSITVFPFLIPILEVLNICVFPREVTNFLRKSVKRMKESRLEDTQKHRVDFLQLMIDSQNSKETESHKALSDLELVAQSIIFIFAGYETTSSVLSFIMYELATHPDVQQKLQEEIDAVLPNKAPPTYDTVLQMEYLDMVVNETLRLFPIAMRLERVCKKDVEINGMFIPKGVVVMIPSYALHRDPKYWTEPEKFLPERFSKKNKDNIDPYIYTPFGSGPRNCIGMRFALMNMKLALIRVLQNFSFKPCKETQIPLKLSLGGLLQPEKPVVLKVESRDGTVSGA
Cytochrome P450 2C9, sequence (P11712 whole entry): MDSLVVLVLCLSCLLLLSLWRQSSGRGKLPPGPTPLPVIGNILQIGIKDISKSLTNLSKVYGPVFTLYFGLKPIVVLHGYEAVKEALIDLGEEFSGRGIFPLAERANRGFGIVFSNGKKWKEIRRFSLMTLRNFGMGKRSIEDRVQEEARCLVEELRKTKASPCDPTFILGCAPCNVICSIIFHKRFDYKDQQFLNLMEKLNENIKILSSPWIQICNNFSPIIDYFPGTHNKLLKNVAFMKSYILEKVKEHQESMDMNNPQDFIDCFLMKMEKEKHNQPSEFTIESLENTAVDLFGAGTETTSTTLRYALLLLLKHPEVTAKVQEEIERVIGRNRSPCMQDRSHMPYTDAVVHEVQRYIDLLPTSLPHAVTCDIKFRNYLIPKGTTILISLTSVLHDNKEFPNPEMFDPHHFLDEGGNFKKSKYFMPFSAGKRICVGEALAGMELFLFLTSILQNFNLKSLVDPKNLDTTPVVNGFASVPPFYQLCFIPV

With N#Cc1cc(-c2ccc(C(=O)O)c(O)c2)c2oc(F)cc2c1 as the compound, how does the pIC50 [1] read?
Its pIC50 is 7.51.

And the Activity [2]?
Its Activity is “Toxic”.

What about the Tmax [3] of the same compound?
Its Tmax is 54 min.

What about the AUC(0-t) at 24 h [4] of the same compound?
Its AUC(0-t) at 24 h is 31600 ng·h/mL.

And the clearance [5]?
The clearance was 5.07 mL/min/kg.

And the Vdss [6]?
The Vdss was 1.71 L/kg.

And the AUC(0-t) at 672 h [7]?
Its AUC(0-t) at 672 h is 336 µg·h/mL.

What about the Activity [8] of the same compound?
Its Activity is “Toxic”.

And the Activity [9]?
The Activity was “Toxic”.

And the NOAEL at 672 h [10]?
Its NOAEL at 672 h is 30 mg/kg/day.

And the Kp at 24 h [11]?
Its Kp at 24 h is 1.17.

What about the AUC(0-t) at 24 h [12] of the same compound?
Its AUC(0-t) at 24 h is 10900 ng·h/mL.

And the pIC50 (Cytochrome P450 2C9)?
The pIC50 was 5.56.

And the Activity [13]?
The Activity was “Toxic”.

And the Activity [14]?
The Activity was “Toxic”.

What about the NOAEL at 672 h [15] of the same compound?
Its NOAEL at 672 h is 60 mg/kg/day.

And the Cmax [16]?
The Cmax was 2530 ng/mL.

What about the Activity [17] of the same compound?
The Activity was “Toxic”.

And the half-life [18]?
Its half-life is 91.2 min.

And the Activity [19]?
Its Activity is “Non-Toxic”.

What about the AUC(0-t) at 24 h [20] of the same compound?
Its AUC(0-t) at 24 h is 302 µg·h/mL.

What about the bioavailability [21] of the same compound?
The bioavailability was 69.9%.

What about the pIC50 (Cytochrome P450 3A4) of the same compound?
Its pIC50 is less than 4.30.

And the Vdss [22]?
The Vdss was 0.297 L/kg.

What about the Activity [23] of the same compound?
The Activity was “Toxic”.

What about the half-life [24] of the same compound?
The half-life was 170 min.

What about the AUC(0-t) at 24 h [25] of the same compound?
The AUC(0-t) at 24 h was 3130 ng·h/mL.

And the AUC(0-t) at 24 h [26]?
Its AUC(0-t) at 24 h is 81700 ng·h/mL.
